Earlier results as cited in publication PMC11891579, “Fluorescent PyrAte-(S)-citalopram conjugates enable imaging of the serotonin transporter in living tissue” (Chemical Science, 2025).

System: organic cation transporter 3 (OCT3)
Set-up: method as in PMID 34884800
Conditions: cited from earlier work

CN(C)CCC[C@@]1(c2ccc(F)cc2)OCc2cc(C#N)ccc21 [(S)-citalopram]
affinity towards OCT3: does not display affinity towards OCT3
